The results in this text go back to patent publication US20140302556A1, “CONTROLLING O-GLYCOSYLATION IN LOWER EUKARYOTES” (priority 2011, published 2014).

The test system of test [1] is PMTi-4-resistant mutant strain YGLY17156. The experiment in a line: 1 L DasGip MeOH fed-batch fermentation with PMTi-4 (lysis, WCW, IgG1 titer, glycans). It is filed as cell-based, Pichia pastoris. How it is done:
(§1) Fed-batch fermentations, IgG1 purifications, characterization of N- and O-glycan profiles as well as all other analytical assays, were performed essentially as previously described (Barnard et al., J. Ind. Microbiol. Biotechnol. 37(9): 961-71 (2010); Potgieter et al., J. Biotechnol. 139(4):318-25 (2009)).
(§2) Both PMT inhibitor-resistant mutant strains (YGLY17156 and YGLY17157), as well as the non-mutagenized parent strain YGLY19376 were grown in 1 L DasGip fermentors using a standard MeOH fed-batch fermentation protocol (See for example, Potgieter et al., J. Biotechnol. 139(4): 318-25 (2009) and Hopkins et al., Glycobiol. August 12. [Epub ahead of print] PubMed PMID: 21840970 (2011)).
(§3) The robustness of the strains was determined by examining the fermentation cell cultures under microscope. Depending on the proportion of cell debris, a lysis-score was assigned from 0.5 to 5, with 5 being the worst lysis.
(§4) The inoculum seed flasks were inoculated from yeast patches (isolated from a single colony) on agar plates into 0.1 L of 4% BSGY in a 0.5-L baffled flask. Seed flasks were grown at 180 rpm and 24° C. (Innova 44, New Brunswick Scientific) for 48 hours. Cultivations were done in 1 L (fedbatch-pro, DASGIP BioTools) bioreactors. Vessels were charged with 0.54 L of 0.22 μm filtered 4% BSGY media and autoclaved at 121° C. for 45 minutes. After sterilization and cooling; the aeration, agitation and temperatures were set to 0.7 vvm, 400 rpm and 24° C. respectively. The pH was adjusted to and controlled at 6.5 using 30% ammonium hydroxide. Inoculation of a prepared bioreactor occurred aseptically with 60 mL from a seed flask. Agitation was ramped to maintain 20% dissolved oxygen (DO) saturation. After the initial glycerol charge was consumed, denoted by a sharp increase in the dissolved oxygen, a 50% w/w glycerol solution containing 5 mg/L biotin and 32.3 mg/L PMTi4 was triggered to feed at 3.68 mL/hr for eight hours. During the glycerol fed-batch phase 0.375 mL of PTM2 salts were injected manually. Completion of the glycerol fed-batch was followed by a 0.5 hour starvation period and initiation of the induction phase. A continuous feed of a 50% v/v methanol solution containing 2.5 mg/L biotin and 6.25 mL/L PTM2 salts was started at a flat rate of 2.16 mL/hour. Injections of 0.25 mL of 1.9 mg/mL PMTi-4 (in methanol) were added after each 24 hours of induction. In general, individual fermentations were harvested within 36-110 hours of induction. The culture broth was clarified by centrifugation (Sorvall Evolution RC, Thermo Scientific) at 8500 rpm for 40 min and the resulting supernatant was submitted for purification.

Test [2] concerns PMTi-4-resistant mutant strain YGLY17157. Described as above. It is filed as cell-based, Pichia pastoris. On the procedure:
as §1, §2, §3, §4

The test system of test [3] is non-mutagenized parent strain YGLY19376. The experiment in a line: 1 L DasGip MeOH fed-batch fermentation with PMTi-4 (lysis, IgG1 titer, glycans). It is filed as cell-based, Pichia pastoris. How it is done: as §1, §2, §3
The inoculum seed flasks were inoculated from yeast patches (isolated from a single colony) on agar plates into 0.1 L of 4% BSGY in a 0.5-L baffled flask. Seed flasks were grown at 180 rpm and 24° C. (Innova 44, New Brunswick Scientific) for 48 hours. Cultivations were done in 1 L (fedbatch-pro, DASGIP BioTools) bioreactors. Vessels were charged with 0.54 L of 0.22 μm filtered 4% BSGY media and autoclaved at 121° C. for 45 minutes. […]

Test [4] concerns un-mutagenized YGLY19376 parent strain. In words: Growth on agar plates containing PMT inhibitor. Format: cell-based, Pichia pastoris. As to conditions: agar plate. On the procedure:
(§5) UV mutagenesis was performed as described by Winston (Curr. Protoc. Mol. Biol. 82:13.3B.1-13.3B.5 (2008)). Briefly, Pichia pastoris strain YGLY19376 (GFI5.0, pmt4Δ, expressing a recombinant IgG1) was grown in 40 mL YSD liquid medium over night at 24° C. Upon reaching an OD600 of five, a 10 mL aliquot of culture was transferred into an empty 100 mm sterile Petri dish, and treated, with the lid off, with 12 mJ/cm^2 of UV irradiation. After the UV treatment, the Petri dish was immediately covered with aluminum foil (to prevent photo-induced DNA repair). The mutagenized cells were allowed to recover at 24° C. for three hours in the dark. Two mL of the recovered YGLY19376 was then centrifuged at 2,000 rpm for five minutes. The cell pellet was then re-suspended in 400 μL 2% BMGY media and subsequently plated onto YSD agar plates containing 2 μg/mL or 4 μg/mL PMTi-4 PMT inhibitor (Example 4 compound of U.S. Published Application No. 20110076721 having the structure

Test [5] has as its system Pichia pastoris mutant strain YGLY17157. The experiment in a line: Growth on YSD agar plates containing PMTi-4. Format: cell-based. The note with it: agar plate, 24° C. How it is done:
as §5
After seven days incubation at 24° C., colonies were picked and re-streaked onto fresh PMTi-4-containing plates at the above concentrations.

For test [6], the system named is Pichia pastoris mutant strain YGLY17156. The experiment in a line: Growth on YSD agar plates containing PMTi-4. It is filed as cell-based. The note with it: agar plate, 24° C.

Turning to `CC(C)COCC(Oc1cc(/C=C2\SC(=S)N(CC(=O)O)C2=O)ccc1OCCc1ccc(F)cc1)c1ccccc1` (stereo not drawn) [PMTi-4], the “O-glycan Occupancy (mannitol/protein)” value is 2.4 mol/mol in test [1] (IgG1), 0.6 mol/mol in test [2] (IgG1) and 1.0 mol/mol in test [3] (IgG1). The “Lysis at 24° C. Day 1” value was determined as 0.5 in test [1] (lysis-score 0.5 to 5, 5 worst) and 0.5 in test [2] (lysis-score 0.5 to 5, 5 worst). For the same molecule, the “Lysis at 24° C. Day 3” value in test [1] (lysis-score 0.5 to 5, 5 worst) was found to be 1; in test [2] (lysis-score 0.5 to 5, 5 worst), 1. For the same molecule, the “Lysis at 24° C. Day 4” value is 1.5 in test [1] (lysis-score 0.5 to 5, 5 worst) and 1 in test [2] (lysis-score 0.5 to 5, 5 worst). The “WCW Day 4” value came out at 236 in test [1] (wet cell weight) and 303 in test [2] (wet cell weight). For the same molecule, in test [3] (lysis-score 0.5 to 5, 5 worst), the “Lysis at 24° C. Day 2” value is 3. For the same molecule, in test [4], the “PMT inhibitor concentration at which strain failed to grow” value is at most 0.1 µg/mL. Moreover, the PMTi-resistance level result in test [5] is “at least 1 μg/mL”. Moreover, in test [6], the “PMTi-4 concentration at which robust growth is exhibited” value is “at least 4 μg/mL”.
